Experimental data published in the pKa sets of Baltruschat and Czodrowski (2020).

Work on CCC1OC(=O)CC(O)C(C)C(CC=O)(OC2OC(C)CC(N(C)C)C2O)CC(C)C(=O)C=CC(C)=CC1C (centres undefined) yielded a pKa of 8.83.

With CC[C@H]1OC(=O)[C@@H](C)[C@H](O[C@H]2C[C@](C)(OC)[C@H](O)[C@@H](C)O2)[C@@H](C)[C@@H](O[C@@H]2O[C@H](C)C[C@@H](N(C)C)[C@@H]2O)[C@](C)(O)C[C@@H](C)C(=O)[C@@H](C)[C@@H](O)[C@]1(C)O the pKa was 8.8.

Compound CCC1OC(=O)CC(O)CC(OC2OC(C)CC(N(C)C)C2O)C(CC=O)CC(C)C(=O)C=CC2OC2C1C (centres undefined) has a pKa of 8.79.

With CCN(C)C(=O)Oc1cccc(C(C)N(C)C)c1 (centres undefined) the pKa was 8.8.

CN/C(=C\[N+](=O)[O-])NCCSCc1ccc(CN(C)C)o1 gave a pKa of 8.31.

With CC(Cc1ccc(C(C)(C)C)cc1)CN1CC(C)OC(C)C1 (centres undefined) the pKa was 7.34.

For CC(C)(C)NCC(O)COc1cccc2c1C[C@H](O)[C@H](O)C2 (some centres undefined), the pKa was 9.69.

N#Cc1ccc2c(c1)N(CCCCN1CCC(O)CC1)c1ccccc1S2 showed a pKa of 8.76.

O=C1CC2(CCCC2)CC(=O)N1CCCCN1CCN(c2ncccn2)CC1 gave a pKa of 7.6.

Compound CC(C)(C)c1ccc(C(O)CCCN2CCC(C(O)(c3ccccc3)c3ccccc3)CC2)cc1 (centres undefined) has a pKa of 9.86.

Compound CC[C@H]1OC(=O)[C@@H](C)[C@H](O[C@@H]2C[C@](C)(OC)[C@@H](O)[C@@H](C)O2)[C@@H](C)[C@@H](O[C@@H]2O[C@H](C)C[C@@H](N(C)C)[C@@H]2O)[C@](C)(O)C[C@@H](C)/C(=N/OCOCCOC)[C@@H](C)[C@@H](O)[C@]1(C)O has a pKa of 9.27.

In the case of COc1ccccc1OCCNCC(O)COc1cccc2[nH]c3ccccc3c12 (centres undefined), the pKa is reported as 7.97.

CC(C(=O)O)c1ccc(-c2ccccc2)c(F)c1 (centres undefined) showed a pKa of 4.03.

Compound CN(C)CCCOc1nn(Cc2ccccc2)c2ccccc12 has a pKa of 9.27.

For COC1CC(OC2C(C)C(O)OC(C)C(C)C(O)C(C)C(=O)C3(CO3)CC(C)C(OC3OC(C)CC(N(C)C)C3O)C2C)OC(C)C1O (centres undefined), the pKa was 8.84.

CCCN(CCC)S(=O)(=O)c1ccc(C(=O)O)cc1 showed a pKa of 3.01.

With CCC(=O)OC(Cc1ccccc1)(c1ccccc1)C(C)CN(C)C (centres undefined) the pKa was 9.06.

CC(=O)Oc1c(C)cc(OCC(O)CNC(C)C)c(C)c1C (centres undefined) gave a pKa of 9.54.

For CN(C)CCOC1(c2ccccc2)CC2CCC1(C)C2(C)C (centres undefined), the pKa was 9.61.

In the case of CN[C@H]1C(O)O[C@H](CO)[C@@H](O)[C@@H]1O (some centres undefined), the pKa is reported as 9.6.

Compound CCN(CC)C(=O)Nc1ccc(OCC(O)CNC)c(C(C)=O)c1 (centres undefined) has a pKa of 9.66.

Work on CC(C)(C)NC[C@H](O)COc1nsnc1N1CCOCC1 yielded a pKa of 9.53.

In the case of CCOC(=O)[C@H](CCc1ccccc1)N[C@@H](C)C(=O)N1CCC[C@H]1C(=O)O, the pKa is reported as 2.92.

Work on CCCCC[C@H](O)/C=C/[C@H]1[C@H](CCCCCCC(=O)O)C(=O)C[C@@H]1O yielded a pKa of 4.87.

For CC(C)NCC(O)COc1cccc2[nH]c3ccccc3c12 (centres undefined), the pKa was 9.52.

COc1ccc2c3c1O[C@H]1[C@@H](O)C=C[C@H]4[C@@H](C2)NCC[C@@]341 gave a pKa of 9.23.

Work on CO[C@H]1[C@@H](O[C@@H]2O[C@H](C)[C@@H](O[C@H]3C[C@@](C)(O)[C@@H](O[C@@H](O)CC(C)C)[C@H](C)O3)[C@@H](N(C)C)[C@H]2O)[C@@H](CCO)C[C@@H](C)[C@H](O)CC[C@@H]2O[C@H]2C[C@@H](C)O[C@@H](O)C[C@H]1O[C@H](C)O yielded a pKa of 7.61.

In the case of CC(NC(CCc1ccccc1)C(=O)O)C(=O)N1CCCC1C(=O)O (centres undefined), the pKa is reported as 7.84.

CC(C)NCC(O)COc1ccc(COCCOC(C)C)cc1 (centres undefined) gave a pKa of 9.57.

For C=CCOc1ccccc1OCC(O)CNC(C)C (centres undefined), the pKa was 9.57.

NC(Cc1c[nH]c2ccccc12)C(=O)NC(Cc1ccccc1)C(=O)O (centres undefined) gave a pKa of 3.18.

With CCN(CC)CCOC(=O)c1ccc(N)cc1 the pKa was 9.04.

With CCC1OC(=O)CC(O)C(C)C(OC2OC(C)C(OC3CC(C)(O)C(O)C(C)O3)C(N(C)C)C2O)C(CC=O)CC(C)C(=O)C=CC(C)=CC1COC1OC(C)C(O)C(OC)C1CC (centres undefined) the pKa was 7.73.

Work on CN(C)CCC=C1c2ccccc2CCc2ccccc21 yielded a pKa of 9.49.

In the case of CCC1OC(=O)CC(O)C(C)C(OC2OC(C)C(O)C(N(C)C)C2O)C(CC=O)CC(C)C(=O)C=CC(C)=CC1COC1OC(C)C(O)C(OC)C1CC (centres undefined), the pKa is reported as 8.36.

COC1C(OC(C)=O)CC(=O)OC(C)CC2OC2/C=C/C(=O)C(C)CC(CC=O)C1OC1OC(C)C(O)C(N(C)C)C1O (centres undefined) showed a pKa of 8.44.

In the case of CC(C)(C)NCC(O)COc1ccccc1C1CCCC1 (centres undefined), the pKa is reported as 9.92.

Cc1cc(=O)oc2cc(C3OC(C(=O)O)C(O)C(O)C3O)ccc12 (centres undefined) gave a pKa of 2.82.

Compound NC(CC(=O)O)C(=O)O (centres undefined) has a pKa of 9.67.

With CC1(C)S[C@@H]2[C@@H](NC(=O)[C@H](N)c3ccc(O)cc3)C(=O)N2[C@H]1C(=O)O the pKa was 2.6.

In the case of NC(Cc1c[nH]c2ccccc12)C(=O)NC(Cc1c[nH]c2ccccc12)C(=O)O (centres undefined), the pKa is reported as 3.38.

CC(C)n1c(/C=C/[C@H](O)C[C@H](O)CC(=O)O)c(-c2ccc(F)cc2)c2ccccc21 gave a pKa of 4.31.

Compound CCCCC[C@H](O)/C=C/[C@H]1[C@H](C/C=C/CCCC(=O)O)C(=O)C[C@@H]1O has a pKa of 4.77.

COc1ccc([C@@H]2Sc3ccccc3N(CCN(C)C)C(=O)[C@@H]2OC(C)=O)cc1 showed a pKa of 8.02.
